The source of these data is US7351731B2, “Azole derivatives and methods for making the same” (Board of Governors for Higher Education, State of Rhode …, priority 2005, dated 2008).

Assay [1] concerns C. albicans ATCC 14053. The assay can be described thus: MIC microdilution susceptibility testing, C. albicans in RPMI. The settings on record: RPMI medium pH 6.9, 35-37° C., 24-48 h, average of three experiments. It is filed as cell-based, Candida albicans. On the procedure:
(§1) Microorganisnis. […] Stock cultures were kept on Sabouraud dextrose agar (SDA; Becton-Dickinson and Co., Sparks, Md.). Subcultures were prepared on SDA at 35-37° C. Suspension cultures were prepared by inoculation of single colonies in 7 ml of normal saline solution.
(§2) Test compounds were dissolved in DMSO (0.56 mg/ml) and stored at 0° C. Working dilutions were made in RPMI or SDB medium. […] The final maximum concentration of DMSO in the assays was 5% (v/v).
(§3) Microdilutions for control experiments with C. albicans, A. niger, and C. neoformans were the modified method of National Committee for Clinical Laboratory Standards (NCCLS) method as described by Galgiani and by the more recent NCCLS M27-A microdilution methods as described previously. Galgiani, J. N. Antimicrob. Agents Chemother. […] Reference method for broth dilution antifungal susceptibility testing for yeasts. Approval standard. […] 9; C. arballeira, N. M., et al. Arch. Pharm.-Pharm. […] Dilutions were prepared in 0.1 ml of RPMI or SDB; the inocula were either 10^4 C. albicans or C. neoformans cells or A. niger spores. The tubes were incubated for 24-48 h at 36±1° C., and turbidity was read visually.
A general note: Dilution methods test growth across graded concentrations, often in twofold steps.

For assay [2], the system named is C. albicans ATCC 14053. The assay can be described thus: MIC microdilution susceptibility testing, C. albicans in SDB. The class given is cell-based, Candida albicans. The settings on record: 24-48 h, average of three experiments; for MIC C. albicans ATCC 14053, SDB: SDB medium pH 5.6, 35-37° C.; for MIC: Candida albicans, ATCC14053, pH 5.6, SDB medium pH 5.6, 35-37° C. On the procedure: as §1, §2, §3

The test system of the next assay is C. neoformans ATCC 66031. The assay can be described thus: MIC microdilution susceptibility testing, C. neoformans in SDB. It is filed as cell-based, Cryptococcus neoformans. The settings on record: SDB medium, 35-37° C., 24-48 h, average of three experiments; for MIC: Cryptococcus neoformans, ATCC66031. On the procedure:
as §1, §2, §3

The subject of the next assay is A. niger ATCC 16404. Kind of assay: MIC microdilution susceptibility testing, A. niger in SDB. It is filed as cell-based, Aspergillus niger. The settings on record: SDB medium, 35-37° C., 24-48 h, average of three experiments; for MIC: Aspergillus niger, ATCC16404. How it is done:
as §1, §2, §3

Values after ≈ are worked out from the molar mass of the structure shown.

With `CC(Br)C(=O)OC(Cn1cncn1)(Cn1cncn1)c1ccc(F)cc1F` (centres unmarked) [Compound 1c, O-2-Bromopropionylfluconazole], the “MIC C. albicans ATCC 14053, RPMI” value in the assay with C. albicans ATCC 14053 [1] came to 656 µg/mL (≈ 1490 µM). The “MIC C. albicans ATCC 14053, SDB” value in the assay on C. albicans ATCC 14053 [2] came out at 656 µg/mL (≈ 1490 µM). In the assay with C. neoformans ATCC 66031, the “MIC C. neoformans ATCC 66031, SDB” value amounted to 656 µg/mL (≈ 1490 µM). Besides, the “MIC A. niger ATCC 16404, SDB” value in the assay with A. niger ATCC 16404 was >656 µg/mL.
Regarding `CCC(Br)C(=O)OC(Cn1cncn1)(Cn1cncn1)c1ccc(F)cc1F` (centres unmarked) [Compound 1d, O-2-Bromobutyrylfluconazole], in the assay with C. albicans ATCC 14053 [1], the “MIC C. albicans ATCC 14053, RPMI” value is 319 µg/mL (≈ 701 µM). In the assay with C. albicans ATCC 14053 [2], the “MIC C. albicans ATCC 14053, SDB” value was found to be 636 µg/mL (≈ 1400 µM). For the same molecule, the “MIC C. neoformans ATCC 66031, SDB” value against C. neoformans ATCC 66031 is >1,276 μg/mL. The “MIC A. niger ATCC 16404, SDB” value in the assay on A. niger ATCC 16404 is on record as “≧1,276 μg/mL”.
For `CCCC(Br)C(=O)OC(Cn1cncn1)(Cn1cncn1)c1ccc(F)cc1F` (centres unmarked) [Compound 1e, O-2-Bromovaleroylfluconazole], in that order: 275 µg/mL (≈ 586 µM), 552 µg/mL (≈ 1180 µM), 1,100 μg/mL and “≧1,100 μg/mL”.
For `CCCCC(Br)C(=O)OC(Cn1cncn1)(Cn1cncn1)c1ccc(F)cc1F` (centres unmarked) [Compound 1f, O-2-Bromohexanoylfluconazole], in that order: 61 µg/mL (≈ 126 µM), 492 µg/mL (≈ 1020 µM), 492 µg/mL (≈ 1020 µM) and “≧979 μg/mL”.
On the same counts, the results for `CCCCCCCCCCC(Br)C(=O)OC(Cn1cncn1)(Cn1cncn1)c1ccc(F)cc1F` (centres unmarked) [Compound 1h, O-2-Bromolauroylfluconazole] are 1,466 μg/mL, 1,466 μg/mL, 1,466 μg/mL and “≧1,466 μg/mL”.
With `CCCCCCCCCCCCC(Br)C(=O)OC(Cn1cncn1)(Cn1cncn1)c1ccc(F)cc1F` (centres unmarked) [Compound 1i, O-2-Bromomyristoylfluconazole], the “MIC C. albicans ATCC 14053, RPMI” value in the assay with C. albicans ATCC 14053 [1] turned out to be 731 µg/mL (≈ 1230 µM). Moreover, the “MIC C. albicans ATCC 14053, SDB” value against C. albicans ATCC 14053 [2] turned out to be 731 µg/mL (≈ 1230 µM). Moreover, the “MIC C. neoformans ATCC 66031, SDB” value against C. neoformans ATCC 66031 turned out to be 731 µg/mL (≈ 1230 µM). In addition, the “MIC A. niger ATCC 16404, SDB” value with A. niger ATCC 16404 is >731 µg/mL.
Regarding `O=C(OCCCl)OC(Cn1cncn1)(Cn1cncn1)c1ccc(F)cc1F` [Compound 1k, O-2-Chloroethyloxycarbonylfluconazole], in the assay with C. albicans ATCC 14053 [1], the “MIC C. albicans ATCC 14053, RPMI” value was 977 µg/mL (≈ 2370 µM). Besides, in the assay with C. albicans ATCC 14053 [2], the “MIC C. albicans ATCC 14053, SDB” value is >977 µg/mL. Besides, the “MIC C. neoformans ATCC 66031, SDB” value against C. neoformans ATCC 66031 is >977 µg/mL. For the same molecule, in the assay on A. niger ATCC 16404, the “MIC A. niger ATCC 16404, SDB” value is >977 µg/mL.
On to `O=C(OC(Cn1cncn1)(Cn1cncn1)c1ccc(F)cc1F)c1ccccc1O` [Compound 1l, O-Salicylfluconazole], for which the “MIC C. albicans ATCC 14053, RPMI” value in the assay with C. albicans ATCC 14053 [1] was “≧1,212 μg/mL”. The “MIC C. albicans ATCC 14053, SDB” value against C. albicans ATCC 14053 [2] is >1,212 μg/mL. Moreover, the “MIC C. neoformans ATCC 66031, SDB” value against C. neoformans ATCC 66031 is recorded as >1,212 μg/mL. Moreover, in the assay on A. niger ATCC 16404, the “MIC A. niger ATCC 16404, SDB” value is >1,212 μg/mL.
`CC(=O)OC[C@H]1O[C@@H](OP(=O)(OCCC#N)OC(Cn2cncn2)(Cn2cncn2)c2ccc(F)cc2F)[C@H](OC(C)=O)[C@@H](OC(C)=O)[C@@H]1OC(C)=O` (stereo partly drawn) [Compound 4a, 2-Cyanoethyl-[1-(β-D-2,3,4,6-glucosyltetraacetate)]fluconazole phosphate]: in the assay on C. albicans ATCC 14053 [2], the “MIC C. albicans ATCC 14053, SDB” value was 1,999 μg/mL. In the assay with C. neoformans ATCC 66031, the “MIC C. neoformans ATCC 66031, SDB” value worked out at 551 µg/mL. Also, in the assay on A. niger ATCC 16404, the “MIC A. niger ATCC 16404, SDB” value is recorded as 1,999 μg/mL.
Take `CC(=O)N[C@H]1[C@H](OP(=O)(OCCC#N)OC(Cn2cncn2)(Cn2cncn2)c2ccc(F)cc2F)O[C@H](COC(C)=O)[C@@H](OC(C)=O)[C@@H]1OC(C)=O` (stereo partly drawn) [Compound 4b, 2-Cyanoethyl-[1-(2-acetamido-2-deoxy-3,4,6-tri-O-acetyl-β-D-glucopyranosidyl)]fluconazole phosphate]: the “MIC C. albicans ATCC 14053, SDB” value in the assay on C. albicans ATCC 14053 [2] was >3,399 μg/mL. Moreover, in the assay with C. neoformans ATCC 66031, the “MIC C. neoformans ATCC 66031, SDB” value was 306 µg/mL. The “MIC A. niger ATCC 16404, SDB” value in the assay with A. niger ATCC 16404 was 1,699 μg/mL.
On to `CCCCCCCCCC(=O)O` [Decanoic acid, reference compound], for which the MIC (commonly the lowest concentration that inhibits growth of the organism) with C. albicans ATCC 14053 [1] (Candida albicans, ATCC14053, read-out: MIC C. albicans ATCC 14053, RPMI) was 791 µg/mL (≈ 4590 µM); against C. albicans ATCC 14053 [2] it was 99 µg/mL (≈ 575 µM); in the assay on A. niger ATCC 16404, < 12 µg/mL.
As for `Fc1ccc(C(S)(Cn2cncn2)Cn2cncn2)c(F)c1` [SH], the MIC in the assay with C. albicans ATCC 14053 [2] was 1860 µg/mL (≈ 5780 µM); against C. neoformans ATCC 66031, 339 µg/mL (≈ 1050 µM); in the assay with A. niger ATCC 16404, > 3730 µg/mL.
On the same counts, the results for `CCCCCCCCCCCCCCO` [Tetradecanol, reference compound] are 1720 µg/mL (≈ 8020 µM), 14 µg/mL (≈ 65.3 µM) and 27 µg/mL (≈ 126 µM).
Regarding `C=CCCCCCCCCCO` [ω-Undecylenyl alcohol, reference compound], the “MIC C. albicans ATCC 14053, SDB” value against C. albicans ATCC 14053 [2] amounted to 110 µg/mL (≈ 646 µM). Moreover, in the assay with C. neoformans ATCC 66031, the “MIC C. neoformans ATCC 66031, SDB” value was determined as 14 µg/mL (≈ 82.2 µM). Further, the “MIC A. niger ATCC 16404, SDB” value against A. niger ATCC 16404 came to 27 µg/mL (≈ 159 µM).
